Test results taken from patent US11459315B2, “Modulators of methyl modifying enzymes, compositions and uses thereof” (Constellation Pharmaceuticals, Inc., priority 2017, dated 2022).
pEC50, pIC50: −log10 of the molar value. Read-outs that look alike come from different tables or passages of the source.

Assays:
[1] = system: H3K27me3 mark in HeLa cells (EZH2); test: H3K27me3 Alpha Hela Assay (AlphaLISA); type: cell-based; conditions: Homo sapiens, HeLa, 72 h, HeLa cells, 72 hrs; read-out: EZH2 Cell H3K27me3 Alpha HeLa (EC50 K27me3)
In short: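 HeLa cells (1,000/well) treated with ten 3-fold compound doses for 72 h at 37 °C; lysates extracted and H3K27me3 detected by AlphaLISA with anti-K27me3 acceptor beads, biotinylated anti-H3 (3 nM) and streptavidin donor beads. EC50 from DMSO-normalized dose-response curves; duplicate plate assessed viability.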

PRC2 containing wt EZH2 = PRC2 containing wt EZH2 (Homo sapiens (Human), UniProt Q15910); test: EZH2 biochemical assay (IC50), 3H-SAM incorporation into biotinylated H3 peptide; conditions: 30 pM PRC2 containing wt EZH2, 3-5 h pre-incubation
In short: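 Activity was measured as ³H-methyl transfer to a biotinylated H3K27me1 peptide over 18-22 h at room temperature, with capture on streptavidin flash plates. The 30 pM wt-EZH2 PRC2 complex was first pre-incubated 3-5 h with compound, 450 nM SAM/450 nM ³H-SAM and 2 µM H3K27me3 activator (pH 8.5, 0.8% DMSO). Four-parameter fits gave IC50.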

PRC2 containing wt EZH2, sequence (Q15910 whole entry): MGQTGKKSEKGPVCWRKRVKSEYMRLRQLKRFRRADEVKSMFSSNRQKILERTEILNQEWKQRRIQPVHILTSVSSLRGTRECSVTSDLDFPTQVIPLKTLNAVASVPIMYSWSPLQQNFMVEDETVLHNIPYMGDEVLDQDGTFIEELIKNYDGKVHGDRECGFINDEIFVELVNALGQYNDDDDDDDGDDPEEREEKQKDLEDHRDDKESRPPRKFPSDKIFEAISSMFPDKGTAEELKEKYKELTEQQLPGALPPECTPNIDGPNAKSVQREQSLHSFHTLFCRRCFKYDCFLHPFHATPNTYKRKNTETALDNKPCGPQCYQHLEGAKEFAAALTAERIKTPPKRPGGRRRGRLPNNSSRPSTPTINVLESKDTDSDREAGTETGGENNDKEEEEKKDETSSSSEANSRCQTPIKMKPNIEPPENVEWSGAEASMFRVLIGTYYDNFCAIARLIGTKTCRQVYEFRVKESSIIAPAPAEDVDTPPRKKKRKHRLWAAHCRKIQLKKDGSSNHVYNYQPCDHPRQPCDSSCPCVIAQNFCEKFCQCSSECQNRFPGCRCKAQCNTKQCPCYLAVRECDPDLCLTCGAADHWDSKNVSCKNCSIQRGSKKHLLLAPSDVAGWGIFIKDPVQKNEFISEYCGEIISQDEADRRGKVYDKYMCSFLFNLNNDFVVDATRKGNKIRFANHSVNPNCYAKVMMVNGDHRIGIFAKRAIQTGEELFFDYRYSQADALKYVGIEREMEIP
PRC2 containing wt EZH2, sequence (O75530 whole entry partner): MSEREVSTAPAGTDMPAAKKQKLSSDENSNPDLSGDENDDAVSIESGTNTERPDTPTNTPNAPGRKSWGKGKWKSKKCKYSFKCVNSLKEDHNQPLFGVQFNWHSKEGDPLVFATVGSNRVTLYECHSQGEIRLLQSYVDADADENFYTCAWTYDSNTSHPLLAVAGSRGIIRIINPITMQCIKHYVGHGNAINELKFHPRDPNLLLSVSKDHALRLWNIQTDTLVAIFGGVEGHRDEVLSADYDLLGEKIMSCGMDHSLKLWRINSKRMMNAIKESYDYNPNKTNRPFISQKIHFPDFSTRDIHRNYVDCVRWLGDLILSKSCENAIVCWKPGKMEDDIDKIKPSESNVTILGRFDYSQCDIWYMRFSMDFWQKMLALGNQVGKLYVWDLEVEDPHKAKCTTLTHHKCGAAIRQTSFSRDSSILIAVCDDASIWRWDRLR
PRC2 containing wt EZH2, sequence (Q15022 whole entry partner): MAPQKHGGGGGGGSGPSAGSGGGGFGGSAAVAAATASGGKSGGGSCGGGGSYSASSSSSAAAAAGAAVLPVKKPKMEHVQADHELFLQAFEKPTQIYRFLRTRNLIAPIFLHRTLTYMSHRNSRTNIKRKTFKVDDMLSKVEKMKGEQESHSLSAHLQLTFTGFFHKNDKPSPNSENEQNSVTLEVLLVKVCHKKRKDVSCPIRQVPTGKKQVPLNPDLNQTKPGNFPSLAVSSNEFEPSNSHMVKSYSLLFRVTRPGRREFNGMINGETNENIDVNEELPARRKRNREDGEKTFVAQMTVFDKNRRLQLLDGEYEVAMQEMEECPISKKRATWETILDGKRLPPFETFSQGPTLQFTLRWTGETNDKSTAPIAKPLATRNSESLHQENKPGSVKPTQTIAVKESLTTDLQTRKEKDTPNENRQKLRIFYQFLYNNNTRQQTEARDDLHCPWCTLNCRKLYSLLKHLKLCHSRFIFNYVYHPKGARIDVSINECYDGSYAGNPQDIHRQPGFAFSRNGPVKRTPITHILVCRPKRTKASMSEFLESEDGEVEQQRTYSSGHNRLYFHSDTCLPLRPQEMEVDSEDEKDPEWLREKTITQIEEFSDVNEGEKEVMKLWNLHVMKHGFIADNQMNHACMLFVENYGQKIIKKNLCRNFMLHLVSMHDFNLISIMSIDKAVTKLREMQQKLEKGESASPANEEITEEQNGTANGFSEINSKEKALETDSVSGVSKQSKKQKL
PRC2 containing wt EZH2, sequence (Q09028 whole entry partner): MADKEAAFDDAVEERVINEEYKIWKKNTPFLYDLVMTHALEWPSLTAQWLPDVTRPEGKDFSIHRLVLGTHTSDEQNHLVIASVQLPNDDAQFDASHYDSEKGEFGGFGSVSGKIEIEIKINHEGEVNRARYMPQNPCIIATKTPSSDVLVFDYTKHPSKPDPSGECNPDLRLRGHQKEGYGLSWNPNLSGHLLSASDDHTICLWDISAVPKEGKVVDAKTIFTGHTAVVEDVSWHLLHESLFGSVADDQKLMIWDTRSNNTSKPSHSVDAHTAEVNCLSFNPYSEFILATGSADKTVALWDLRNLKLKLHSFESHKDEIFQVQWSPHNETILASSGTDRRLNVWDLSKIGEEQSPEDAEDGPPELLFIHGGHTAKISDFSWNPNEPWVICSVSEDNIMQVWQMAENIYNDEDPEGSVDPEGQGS
PRC2 containing wt EZH2, sequence (Q6ZN18 whole entry partner): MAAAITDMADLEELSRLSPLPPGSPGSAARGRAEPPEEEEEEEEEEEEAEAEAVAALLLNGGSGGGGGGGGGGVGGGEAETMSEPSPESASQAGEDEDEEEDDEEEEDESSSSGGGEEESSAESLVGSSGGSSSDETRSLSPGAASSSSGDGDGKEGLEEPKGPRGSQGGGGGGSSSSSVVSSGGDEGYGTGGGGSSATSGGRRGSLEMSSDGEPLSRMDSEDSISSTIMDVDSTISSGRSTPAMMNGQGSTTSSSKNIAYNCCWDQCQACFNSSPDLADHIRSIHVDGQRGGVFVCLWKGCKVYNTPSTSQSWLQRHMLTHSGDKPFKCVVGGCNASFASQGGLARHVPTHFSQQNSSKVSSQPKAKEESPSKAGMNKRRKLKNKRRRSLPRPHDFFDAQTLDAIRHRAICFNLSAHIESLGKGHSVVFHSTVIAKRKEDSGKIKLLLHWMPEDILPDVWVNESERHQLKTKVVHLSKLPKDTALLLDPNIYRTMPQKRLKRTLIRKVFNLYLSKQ

Row | Compound | pEC50 [1] | pIC50 (PRC2 containing wt EZH2; read-out: EZH2 (IC50)) | pIC50 (PRC2 containing wt EZH2; EZH2 (IC50))
1 | CSc1cc(C)[nH]c(=O)c1CNC(=O)c1c(C)n([C@H](C)C2CCC(N3CC(OC(C)(C)C)C3)CC2)c2ncc(Cl)cc12 (stereo partly drawn) [Example 129, 1-((R)-1-(4-(3-(tert-butoxy)azetidin-1-yl)cyclohexyl)ethyl)-5-chloro-2-methyl-N-((6-methyl-4-(methylthio)-2-oxo-1,2-dihydropyridin-3-yl)methyl)-1H-pyrrolo[2,3-b]pyridine-3-carboxamide] | > 8.00 | > 9.30 | 
2 | CSc1cc(C)[nH]c(=O)c1CNC(=O)c1c(C)n([C@H](C)C2CCN(C3(C)CC3)CC2)c2ncccc12 [Example 131, (R)-2-methyl-N-((6-methyl-4-(methylthio)-2-oxo-1,2-dihydropyridin-3-yl)methyl)-1-(1-(1-(1-methylcyclopropyl)piperidin-4-yl)ethyl)-1H-pyrrolo[2,3-b]pyridine-3-carboxamide] | > 8.00 |  | > 9.30
3 | CSc1cc(C)[nH]c(=O)c1CNC(=O)c1c(C)n([C@H](C)C2CCC(OC3CC3)CC2)c2ccccc12 (stereo partly drawn) [Example 132, 1-((R)-1-(4-cyclopropoxycyclohexyl)ethyl)-2-methyl-N-((6-methyl-4-(methylthio)-2-oxo-1,2-dihydropyridin-3-yl)methyl)-1H-indole-3-carboxamide] | > 8.00 |  | > 9.30
4 | CSc1cc(C)[nH]c(=O)c1CNC(=O)c1c(C)n([C@H](C)C2CCN(C3COC3)CC2)c2ccccc12 [Example 133, (R)-2-methyl-N-((6-methyl-4-(methylthio)-2-oxo-1,2-dihydropyridin-3-yl)methyl)-1-(1-(1-(oxetan-3-yl)piperidin-4-yl)ethyl)-1H-indole-3-carboxamide] | > 8.00 |  | > 9.30
5 | CSc1cc(C)[nH]c(=O)c1CNC(=O)c1c(C)n([C@H](C)C2CCN(C(=O)CO)CC2)c2ccccc12 [Example 135, (R)-1-(1-(1-(2-hydroxyacetyl)piperidin-4-yl)ethyl)-2-methyl-N-((6-methyl-4-(methylthio)-2-oxo-1,2-dihydropyridin-3-yl)methyl)-1H-indole-3-carboxamide] | < 7.00 | > 9.30 | 
6 | CSc1cc(C)[nH]c(=O)c1CNC(=O)c1c(C)n([C@H](C)C2CCC(N3CC(O)C3)CC2)c2ccccc12 (stereo partly drawn) [Example 136, (R)-1-(1-(4-(3-hydroxyazetidin-1-yl)cyclohexyl)ethyl)-2-methyl-N-((6-methyl-4-(methylthio)-2-oxo-1,2-dihydropyridin-3-yl)methyl)-1H-indole-3-carboxamide] | < 7.00 |  | > 9.30
7 | COC1CC(N2CCC([C@@H](C)n3c(C)c(C(=O)NCc4c(SC)cc(C)[nH]c4=O)c4ccccc43)CC2)C1 (stereo partly drawn) [Example 140, (R)-1-(1-(1-(3-methoxycyclobutyl)piperidin-4-yl)ethyl)-2-methyl-N-((6-methyl-4-(methylthio)-2-oxo-1,2-dihydropyridin-3-yl)methyl)-1H-indole-3-carboxamide] | 7.00 to 8.00 |  | > 9.30
8 | COC1CC(N2CCC([C@@H](C)n3c(C)c(C(=O)NCc4c(SC)cc(C)[nH]c4=O)c4cccnc43)CC2)C1 (stereo partly drawn) [Example 141, (R)-1-(1-(1-(3-methoxycyclobutyl)piperidin-4-yl)ethyl)-2-methyl-N-((6-methyl-4-(methylthio)-2-oxo-1,2-dihydropyridin-3-yl)methyl)-1H-pyrrolo[2,3-b]pyridine-3-carboxamide] | 7.00 to 8.00 |  | > 9.30
9 | CSc1cc(C)[nH]c(=O)c1CNC(=O)c1c(C)n([C@H](C)C2CCN(C(=O)CN(C)C)CC2)c2ccccc12 [Example 142, (R)-1-(1-(1-(dimethylglycyl)piperidin-4-yl)ethyl)-2-methyl-N-((6-methyl-4-(methylthio)-2-oxo-1,2-dihydropyridin-3-yl)methyl)-1H-indole-3-carboxamide] | < 7.00 | > 9.30 | 
